Test results as given in publication PMC4462585, “Synthesis and Biological Evaluation of 3-Alkyl-1,5-Diaryl-1H-Pyrazoles as Rigid Analogues of Combretastatin A-4 with Potent Antiproliferative Activity” (PLoS ONE, 2015).

Tests used:
[1] = system: fibrosarcoma cell line HT-1080; experiment: MTT antiproliferative assay, HT-1080; assay type: cell-based; details: Homo sapiens, 72 h drug exposure, triplicate, read-out: Antiproliferative activity (IC50 ± SD) HT-1080
Source text: (§1) Pulmonary adenocarcinoma cell lines (A549) and gastric adenocarcinoma cell lines (SGC-7901) were provided as gifts (purchased from the Cell Resource Center of Shanghai Institutes for Biological Sciences) from the China-Japan Research Institute of Medical and Pharmaceutical Sciences, Shenyang Pharmaceutical University. Fibrosarcoma cell lines (HT-1080) were purchased from the Cell Resource Center of Shanghai Institutes for Biological Sciences. All cells were maintained in DMEM containing 1% antibiotics (100 units of penicillin and […] per mL in 0.9% normal saline) and 10% foetal bovine serum in a humidified atmosphere containing 5% CO2 at 37°C.
(§2) Antiproliferative activities of CA-4 and the target compounds were measured using a colourimetric assay using 3-(4,5-dimethylthiazol-2yl-)-2,5-diphenyltetrazolium bromide (MTT). Approximately 3 × 10^4 cells were seeded in a 96-well plate. After 24 h of incubation at 37°C, cells were exposed to compounds of differing concentrations (0.0008 μg/mL, 0.004 μg/mL, 0.02 μg/mL, 0.10 μg/mL, 0.50 μg/mL, 2.5 μg/mL, 12.5 μg/mL, 62.5 μg/mL) for 72 h. After treatment, cells were washed with 1X PBS followed by addition of 100 μL of 0.05% MTT reagent to each well, followed by incubation for 4 h at 37°C. After incubation, the supernatant from each well was carefully removed and the formazan crystals were dissolved in 100 μL of DMSO. The colour density was measured spectrophotometrically at 490 nm using a microplate reader (SpectraMax Plus384, Molecular Devices Corp., USA). The percentage of cell growth inhibition was calculated as follow: inhibition ratio % = (Acontrol—Atreated) / Acontrol × 100%. The 50% inhibitory concentration (IC50) was defined as the concentration that reduced the absorbance of the untreated wells by 50% of the vehicle in the MTT assay.

[2] = system: gastric adenocarcinoma cell line SGC-7901; experiment: MTT antiproliferative assay, SGC-7901; assay type: cell-based; details: Homo sapiens, 72 h drug exposure, triplicate, read-out: Antiproliferative activity (IC50 ± SD) SGC-7901
Source text: as §1, §2

[3] = system: pulmonary adenocarcinoma cell line A549; experiment: MTT antiproliferative assay, A549; assay type: cell-based; details: Homo sapiens, 72 h drug exposure, triplicate, read-out: Antiproliferative activity (IC50 ± SD) A549
Source text: as §1, §2

| Compound | melting point | IC50 [1] | IC50 [2] | IC50 [3] |
| --- | --- | --- | --- | --- |
| COc1ccc(-c2c(Br)c(C)nn2-c2cc(OC)c(OC)c(OC)c2)cc1N [Compound 7o, 4-Bromo-3-methyl-5-(3-amino-4-methoxyphenyl)-1-(3,4,5-trimethoxyphenyl)-1H-pyrazole] | 128 to 129 °C | 15.9 ± 3.2 µM | 14.3 ± 3.1 µM | 79.1 ± 2 µM |
| COc1ccc(-c2c(C=O)c(C)nn2-c2cc(OC)c(OC)c(OC)c2)cc1O [Compound 7l, 4-Formyl-3-methyl-5-(3-hydroxy-4-methoxyphenyl)-1-(3,4,5-trimethoxyphenyl)-1H-pyrazole] | 97 to 98 °C | 23.8 ± 1.8 µM | 16.4 ± 1.5 µM | 45.7 ± 3.3 µM |
| C=CCOc1ccc(-c2cc(C)nn2-c2cc(OC)c(OC)c(OC)c2)cc1OC [Compound 7f, 3-Methyl-5-(4-allyloxy-3-methoxyphenyl)-1-(3,4,5-trimethoxyphenyl)-1H-pyrazole] | 78 to 79 °C | > 100 µM | 23.6 ± 2.3 µM | > 100 µM |
| COc1ccc(-c2cc(C)nn2-c2cc(OC)c(OC)c(OC)c2)cc1[N+](=O)[O-] [Compound 7h, 3-Methyl-5-(4-methoxy-3-nitrophenyl)-1-(3,4,5-trimethoxyphenyl)-1H-pyrazole] | 145 to 146 °C | > 100 µM | 5.22 ± 0.19 µM | > 100 µM |
| COc1cc(-n2nc(C)cc2-c2ccccc2)cc(OC)c1OC [Compound 7a, 3-Methyl-5-phenyl-1-(3,4,5-trimethoxyphenyl)-1H-pyrazole] | 77 to 78 °C | > 100 µM | > 100 µM | > 100 µM |
| COc1ccc(-c2cc(C)nn2-c2cc(OC)c(OC)c(OC)c2)cc1F [Compound 7e, 3-Methyl-5-(3-fluoro-4-methoxyphenyl)-1-(3,4,5-trimethoxyphenyl)-1H-pyrazole] | 86 to 87 °C | 5.52 ± 0.26 µM | 3.05 ± 0.33 µM | 2.84 ± 0.52 µM |
| COc1cc(-c2cc(C)nn2-c2cc(N)ccc2C)cc(OC)c1OC [Compound 8e, 3-Methyl-1-(5-amino-2-methylphenyl)-5-(3,4,5-trimethoxyphenyl)-1H-pyrazole] | 69 to 70 °C | 11.9 ± 1.9 µM | 2.43 ± 0.09 µM | 28.2 ± 1.7 µM |
| COc1cc(-n2nc(C)cc2-c2ccc(F)cc2)cc(OC)c1OC [Compound 7d, 3-Methyl-5-(4-fluorophenyl)-1-(3,4,5-trimethoxyphenyl)-1H-pyrazole] | 104 to 105 °C | > 100 µM | 20.7 ± 1.2 µM | > 100 µM |
| C=CCOc1cc(-c2cc(C)nn2-c2cc(OC)c(OC)c(OC)c2)ccc1OC [Compound 7g, 3-Methyl-5-(3-allyloxy-4-methoxyphenyl)-1-(3,4,5-trimethoxyphenyl)-1H-pyrazole] | 79 to 80 °C | > 100 µM | 6.45 ± 0.22 µM | > 100 µM |
| CCc1cc(-c2ccc(OC)c(N)c2)n(-c2cc(OC)c(OC)c(OC)c2)n1 [Compound 7r, 3-Ethyl-5-(3-amino-4-methoxyphenyl)-1-(3,4,5-trimethoxyphenyl)-1H-pyrazole] | 114 to 115 °C | 8.16 ± 0.12 µM | 4.62 ± 0.09 µM | 3.55 ± 0.09 µM |
| COc1ccc(-n2nc(C)cc2-c2cc(OC)c(OC)c(OC)c2)cc1[N+](=O)[O-] [Compound 8f, 3-Methyl-1-(4-methoxy-3-nitrophenyl)-5-(3,4,5-trimethoxyphenyl)-1H-pyrazole] | 118 to 119 °C | > 100 µM | > 100 µM | > 100 µM |
| COc1ccc(-c2c(Br)c(C)nn2-c2cc(OC)c(OC)c(OC)c2)cc1[N+](=O)[O-] [Compound 7n, 4-Bromo-3-methyl-5-(4-methoxy-3-nitrophenyl)-1-(3,4,5-trimethoxyphenyl)-1H-pyrazole] | 182 to 183 °C | > 100 µM | > 100 µM | > 100 µM |
| COc1cc(-c2cc(C)nn2-c2ccc(C)cc2)cc(OC)c1OC [Compound 8c, 3-Methyl-1-(4-methylphenyl)-5-(3,4,5-trimethoxy-phenyl)-1H-pyrazole] | 70 to 71 °C | 15.6 ± 1.5 µM | 11.8 ± 1.2 µM | 16.2 ± 1 µM |
| CCCc1cc(-c2ccc(OC)c(N)c2)n(-c2cc(OC)c(OC)c(OC)c2)n1 [Compound 7s, 3-Propyl-5-(3-amino-4-methoxyphenyl)-1-(3,4,5-trimethoxyphenyl)-1H-pyrazole] | 125 to 126 °C | 23.2 ± 0.11 µM | 35.7 ± 0.08 µM | 56.6 ± 1 µM |
| C=CCOc1cc(-n2nc(C)cc2-c2cc(OC)c(OC)c(OC)c2)ccc1OC [Compound 8h, 3-Methyl-1-(3-allyloxy-4-methoxyphenyl)-5-(3,4,5-trimethoxyphenyl)-1H-pyrazole] | 98 to 99 °C | > 100 µM | > 100 µM | > 100 µM |
| COc1ccc(-n2nc(C)cc2-c2cc(OC)c(OC)c(OC)c2)cc1N [Compound 8g, 3-Methyl-1-(3-amino-4-methoxyphenyl)-5-(3,4,5-trimethoxyphenyl)-1H-pyrazole] | 56 to 57 °C | 24.7 ± 2.3 µM | 21.2 ± 1.6 µM | 21.4 ± 1.2 µM |
| COc1cc(-c2cc(C)nn2-c2cc(OC)c(OC)c(OC)c2)ccc1O [Compound 7j, 3-Methyl-5-(4-hydroxy-3-methoxyphenyl)-1-(3,4,5-trimethoxyphenyl)-1H-pyrazole] | 197 to 198 °C | > 100 µM | 25.9 ± 2.3 µM | > 100 µM |
| COc1cc(-c2cc(C)nn2-c2ccccc2)cc(OC)c1OC [Compound 8a, 3-Methyl-1-phenyl-5-(3,4,5-trimethoxyphenyl)-1H-pyrazole] | 88 to 89 °C | > 100 µM | > 100 µM | > 100 µM |
| COc1ccc(-c2cc(C)nn2-c2cc(OC)c(OC)c(OC)c2)cc1 [Compound 7b, 3-Methyl-5-(4-methoxyphenyl)-1-(3,4,5-trimethoxy-phenyl)-1H-pyrazole] | 118 to 119 °C | 1.01 ± 0.12 µM | 0.73 ± 0.09 µM | 15.2 ± 2.2 µM |
| COc1cc(-c2cc(C)nn2-c2cc([N+](=O)[O-])ccc2C)cc(OC)c1OC [Compound 8d, 3-Methyl-1-(2-methyl-5-nitrophenyl)-5-(3,4,5-trimethoxyphenyl)-1H-pyrazole] | 102 to 103 °C | > 100 µM | 31.1 ± 2.5 µM | 48.6 ± 1.1 µM |
| CCc1cc(-c2ccc(OC)c([N+](=O)[O-])c2)n(-c2cc(OC)c(OC)c(OC)c2)n1 [Compound 7p, 3-Ethyl-5-(4-methoxy-3-nitrophenyl)-1-(3,4,5-trimethoxyphenyl)-1H-pyrazole] | 151 to 152 °C | > 100 µM | > 100 µM | > 100 µM |
| COc1ccc(-n2nc(C)cc2-c2cc(OC)c(OC)c(OC)c2)cc1O [Compound 8i, 3-Methyl-1-(3-hydroxy-4-methoxyphenyl)-5-(3,4,5-trimethoxyphenyl)-1H-pyrazole] | 167 to 168 °C | 15 ± 0.9 µM | 13.7 ± 1.2 µM | 21.8 ± 2.1 µM |
| CCCc1cc(-c2ccc(OC)c([N+](=O)[O-])c2)n(-c2cc(OC)c(OC)c(OC)c2)n1 [Compound 7q, 3-Propyl-5-(4-methoxy-3-nitrophenyl)-1-(3,4,5-trimethoxyphenyl)-1H-pyrazole] | 149 to 150 °C | > 100 µM | > 100 µM | > 100 µM |
| COc1ccc(-c2c(CO)c(C)nn2-c2cc(OC)c(OC)c(OC)c2)cc1O [Compound 7m, 4-Hydroxymethyl-3-methyl-5-(3-hydroxy-4-methoxy-phenyl)-1-(3,4,5-trimethoxyphenyl)-1H-pyrazole] | 166 to 167 °C | 7.11 ± 0.23 µM | 8.42 ± 0.32 µM | 9.04 ± 0.25 µM |
| COc1ccc(-n2nc(C)cc2-c2cc(OC)c(OC)c(OC)c2)cc1 [Compound 8b, 3-Methyl-1-(4-methoxyphenyl)-5-(3,4,5-trimethoxy-phenyl)-1H-pyrazole] | 67 to 68 °C | 28.2 ± 1.9 µM | 19 ± 2 µM | 9.39 ± 0.21 µM |
| COc1cc(-n2nc(C)cc2-c2ccc(C)cc2)cc(OC)c1OC [Compound 7c, 3-Methyl-5-(4-methylphenyl)-1-(3,4,5-trimethoxy-phenyl)-1H-pyrazole] |  | 1.23 ± 0.15 µM | 0.53 ± 0.2 µM | 2.35 ± 0.33 µM |
